Reference: US20140349941A1, “AROMATIC-CATIONIC PEPTIDES AND USES OF SAME” (Cornell University, priority 2011, published 2014)
Where no end group is shown, it is not given here. [ ]: non-standard residue; d: D form.

Experiments:
[1] = molecular target: heme environment of cytochrome c (with CL) (Homo sapiens, UniProt P99999); assay: Soret CD spectrum of cyt C in the presence of CL; assay type: binding; settings: cyt C 10 μM; CL 30 μg/ml; peptide 10 μM; 20 mM HEPES pH 7.5, 25° C.; FIG. 24
Experimental: Circular dichroism (CD) was carried out to examine the effects of the peptides on protecting the heme environment of cyt C from the acyl chain of CL. For heme proteins, the Soret CD spectrum is strictly correlated with the heme pocket conformation. In particular, the negative 416-420 nm Cotton effect is considered diagnostic of Fe(III)-Met80 coordination in native cyt C (Santucci and Ascoli, 1997). […] CD spectra were obtained using AVIV CD Spectrometer Model 410.
Changes in the Soret CD spectrum of cyt C (10 μM) were recorded in the absence (dotted line) and presence (dashed line) of 30 μg/ml CL, plus addition of different peptides (10 μM) (solid line) (FIG. 24). CD measurements were carried out using 20 mM HEPES, pH 7.5, at 25° C. and expressed as molar ellipticity (θ) (m Deg).

cytochrome c (with CL) = cytochrome c (with CL) (Homo sapiens, UniProt P99999); assay: Cytochrome c reduction inhibited by CL; assay type: biochemical; settings: 500 μM GSH; FIG. 25C
Chain of cytochrome c (with CL) (P99999 2-105 limits assumed, species assumed): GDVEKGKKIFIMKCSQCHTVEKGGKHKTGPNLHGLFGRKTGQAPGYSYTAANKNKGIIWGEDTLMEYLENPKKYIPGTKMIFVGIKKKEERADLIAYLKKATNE
Experimental: Cytochrome c is a carrier of electrons between respiratory complex III and IV in mitochondria. Cytochrome c is reduced (Fe^2+) after it accepts an electron from cytochrome c reductase, and it is then oxidized to Fe^3+ by cytochrome c oxidase.
Reduction of cytochrome c (20 μM) was induced by the addition of glutathione (500 μM) in the absence or presence of CL (100 μg/ml) (FIG. 25A). Reduction of cytochrome c was monitored by absorbance at 550 nm using a 96-well UV-VIS plate reader (Molecular Devices). Addition of CL decreased the rate of cytochrome c reduction by half.

cytochrome c-CL complex [2] = molecular target: T1, cytochrome c-CL complex (Homo sapiens, UniProt P99999); assay: Cytochrome c/CL peroxidase activity (amplex red); assay type: biochemical; settings: figure legend FIG. 29A-C; comparison at a fixed concentration of 10 μM (FIG. 29C)
T1 sequence (P99999 2-105 limits assumed, species assumed, one chain of several): as the sequence (P99999 2-105 limits assumed, species assumed) above
Source text: The six coordination of the heme in cytochrome c prevents direct interaction of H2O2 with the catalytic metal site, and native cytochrome c in solution is a poor peroxidase. Upon interaction with CL, cytochrome c undergoes a structural change with rupture of the Fe-Met80 coordination. […] The mechanism of action of cytochrome c peroxidase is similar to that of other peroxidases, such as horse radish peroxidase (HRP). Thus it is possible to use the amplex red-HRP reaction to investigate cytochrome c peroxidase activity. In the presence of peroxidase, amplex red (AR) reacts with H2O2 to form the red-fluorescent oxidation product, resorufin (Ex/Em=571/585).
Cytochrome c (2 μM) was mixed with CL (25 μg/ml) and 10 μM H2O2 in 20 mM HEPES, pH 7.4. Amplex red (50 μM) was then added and fluorescence emission monitored in real time using Hitachi F4500 fluorescence spectrophotometer. Addition of amplex red elicited rapid increase in fluorescence signal due to resorufin formation, providing direct evidence for peroxidase activity of cytochrome c/CL complex (FIG. 29A).

[3] = Fluorescence spectroscopy of peptide interaction with cardiolipin; assay type: binding; settings: for increase in quantal yield of peptide fluorescence: peptide 1 μM
Source text: The peptides Dmt-D-Arg-(atn)Dap-Lys-NH2 (SS-19) and Dmt-D-Arg-Phe-Lys-Ald-NH2 (SS-37)cationic peptides carry net positive charge at neutral pH. They are expected to associate with anionic phospholipid cardiolipin based on electrostatic interaction. The interaction of small peptides with lipid membranes can been studied using fluorescence spectroscopy (Surewicz and Epand, 1984). […] Polarity-sensitive fluorescent probes were incorporated into the peptides and fluorescence spectroscopy was used to determine if SS-19, SS-37 and SS-36 interact with CL.
The peptide Dmt-D-Arg-Phe-(atn)Dap-NH2 (SS-19) contains anthraniloyl incorporated into diaminopropionic acid. Anthraniloyl derivatives fluoresce in the 410-420 nm range when excited at 320-330 nm (Hiratsuka T, 1983). The quantum yield of anthraniloyl derivatives is strongly dependent on the local environment, and can increase 5-fold going from water to 80% ethanol, together with a blue shift in the emission maxima (λ max) of <10 nm (Hiratsuka T, 1983). Fluorescence emission spectrum of SS-19 (1 μM) alone, and in the presence of increasing concentrations of CL (5 to 50 μg/ml), was monitored following excitation at 320 nm using Hitachi F-4500 fluorescence spectrophotometer.
The peptide Dmt-D-Arg-Phe-Lys-Ald-NH2 (SS-37) contains an additional amino acid, aladan (Ald), which has been reported to be particularly sensitive to the polarity of its environment and it has been used to probe the electrostatic character of proteins (Cohen et al., 2002). When excited at 350 nm, λmax shifts from 542 nm in water to 409 nm in heptane, accompanied by a significant increase in quantal yield (Cohen et al., 2001). Fluorescence emission spectrum of SS-37 (1 μM) alone, and in the presence of increasing concentrations of CL, was monitored following excitation at 350 nm. Addition of CL (5 to 50 μg/ml) led to a 3-fold increase in quantal yield of SS-37 as well as a clear blue shift in λmax, from 525 nm without CL to 500 nm with 50 μg/ml CL (FIG. 21B).
The peptide Dmt-D-Arg-Ald-Lys-NH2 (SS-36) contains Ald in place Phe^3. Fluorescence emission spectrum of SS-36 (1 μM) alone, and in the presence of increasing concentrations of CL, was monitored following excitation at 350 nm. SS-36 was the most sensitive to the addition of CL, with dramatic increase in quantal yield and blue shift observed with much lower added amounts of CL (1.25 to 5 μg/ml). The λmax shifted from 525 nm without CL to 500 nm with as little as 1.25 μg/ml CL, and quantal yield increased by more than 100-fold with the addition of 5 μg/ml of CL (FIG. 21C).

cytochrome c-CL complex [4] = molecular target: T1, cytochrome c-CL complex; assay: Fluorescence spectroscopy of peptide with cytochrome c in the presence of CL; assay type: binding; settings: for peptide fluorescence on addition of cytochrome c in the presence of CL: 2 μM cytochrome c; for emission maxima: with CL 2.5 μg/ml
Experimental: Fluorescence emission of SS-19 (10 μM) was monitored in real time (Ex/Em=320 nm/420 nm) using Hitachi F-4500 fluorescence spectrophotometer. […] CL may potentiate the interaction between SS-19 and cytochrome c by serving as an anionic platform for the two cationic molecules.
The quenching by cytochrome c was not displaced by sequential additions of bovine serum albumin (500 μg/ml) (FIG. 23C, A+arrows).
SS-36 also contains the polarity-sensitive fluorescent amino acid aladan.

cytochrome c = cytochrome c (Homo sapiens, UniProt P99999); assay: Cytochrome c reduction monitored by absorption spectroscopy (glutathione or NAC as reducing agent); assay type: biochemical; settings: absorbance at 550 nm; FIG. 13
Chain of cytochrome c (P99999 2-105 limits assumed, species assumed): as above
Experimental: Cytochrome c reduction: increasing amounts of aromatic-cationic peptides were added to a solution of oxidized cyt c. The formation of reduced cyt c was monitored by absorbance at […]. The rate of cyt c reduction was determined by non-linear analysis (Prizm software).
Time-resolved UV-Visible absorption spectroscopy was used to study the electron transport process of cyt c in the presence of peptides. Reduced cyt c was monitored by absorbance at a broad-band spectral range (200-1100 nm). The absorption changes were recorded with a UV/Visible spectrophotometer (Ultrospec 3300 pro, GE) in quartz cells with path lengths of 1 or 2 mm. N-acetylcysteine (NAC) and glutathione were used as electron donors to reduce oxidized cyt c. The rate constant of cyt c reduction was estimated by adding various concentrations of peptides. The dose dependence of the peptides was correlated to the cyt c reduction kinetics.
Absorption spectroscopy (UltroSpec 3300 Pro; 220-1100 nm) was used to determine if SS-31 modulates cyt c reduction (FIG. 1). Reduction of cyt c with glutathione is associated with multiple shifts in the Q band (450-650 nm), with a prominent shift at 550 nm.
Reduction of cyt c was monitored by increase in absorbance at 550 nm. […] Similar results were obtained using N-acetylcysteine (NAC) as a reducing agent (not shown).

[5] = tested on: isolated rat kidney mitochondria; assay: O2 consumption of isolated rat kidney mitochondria (Oxygraph); assay type: biochemical
Experimental: (§1) Fresh mitochondria were isolated from rat kidney as described previously. Electron flux was measured by O2 consumption (Oxygraph Clark electrode) as previously described using different substrates for C1 (glutamate/malate), C2 (succinate), and C3 (TMPD/ascorbate). Assays were carried out under low substrate conditions in order to avoid saturating the enzyme reactions. ATP production in isolated mitochondria was determined kinetically using the luciferase method (Biotherma) in a 96-well luminescence plate reader (Molecular Devices). The initial maximal rate for ATP synthesis was determined over the first minute.
Oxygen consumption of isolated rat kidney mitochondria was determined using the Oxygraph (FIG. 5). Rates of respiration were measured in the presence of different concentrations of SS-31 in state 2 (400 μM ADP only), state 3 (400 μM ADP and 500 μM substrates) and state 4 (substrates only). All experiments were done in triplicate with n=4-7.
(§2) SS-20 or SS-31 was added at 100 μM concentrations to isolated mitochondria in respiration buffer containing 0.5 mM succinate (complex II substrate) and 400 μM ADP. Similar increases in O2 consumption were observed when low concentrations of complex I substrates (glutamate/malate) were used (data not shown).
SS-20 or SS-31 was added at 10 μM or 100 μM concentrations to isolated mitochondria in respiration buffer containing glutamate/malate (complex I substrate), 0.5 mM succinate (complex II substrate) or 3 μM TMPD/1 mM ascorbate (direct reductant of cyt C). 400 μM ADP was added to initiate State 3 respiration.

isolated mitochondria = assay: ATP synthesis in isolated mitochondria; assay type: biochemical, rat; settings: mitochondria energized with low concentrations of succinate; FIG. 15
Experimental: as §1
The rate of mitochondrial ATP synthesis was determined by measuring ATP in respiration buffer collected from isolated mitochondria 1 min after addition of […] (FIG. 6). ATP was assayed by HPLC. All experiments were carried out in triplicate, with n=3.
as §2
Increase in electron flux in the electron transport chain can either result in increase in ATP synthesis or increase in electron leak and generation of free radicals. ATP synthesis in isolated mitochondria was assayed by HPLC.

Chain of heme environment of cytochrome c (with CL) (P99999 2-105 limits assumed, species assumed): as above

## D-Arg-Tyr-Lys-Phe-NH2 ([dR]YKF-NH2; N-terminus assumed; SMILES N=C(N)NCCC[C@@H](N)C(=O)N[C@@H](Cc1ccc(O)cc1)C(=O)N[C@@H](CCCCN)C(=O)N[C@@H](Cc1ccccc1)C(N)=O) [SPI-231]
[1]
  disappearance of the negative Cotton effect caused by CL (heme environment of cytochrome c): Protect the Heme Environment of Cytochrome C from the Acyl Chain of CL
Cytochrome c (with CL)
  CL inhibition of cyt C reduction: prevented CL inhibition of cyt C reduction
Cytochrome c-CL complex [2]
  peroxidase activity in cytochrome c/CL complex: preventing peroxidase activity in cytochrome c/CL complex

## Dmt-D-Arg-Ald-Lys-NH2 [SS-36]
[3]; CL 5 μg/ml, excitation 350 nm
  increase in quantal yield of peptide fluorescence: more than 100 fold
[3]; with 1.25 μg/ml CL, excitation 350 nm
  λmax of fluorescence emission: 500 nm
[3]; without CL, excitation 350 nm
  λmax of fluorescence emission: 525 nm
Cytochrome c-CL complex [4]; CL 2.5 μg/ml, FIG. 23D
  peptide fluorescence on addition of cytochrome c in the presence of CL: dramatic quenching of peptide's fluorescence
  peptide fluorescence on addition of CL: increase in SS-36 fluorescence
Cytochrome c-CL complex [4]; after 2 μM cytochrome c
  emission maxima: 450 nm
Cytochrome c-CL complex [4]; before cytochrome c
  emission maxima: 510 nm
[1]
  disappearance of the negative Cotton effect caused by CL (heme environment of cytochrome c): Protect the Heme Environment of Cytochrome C from the Acyl Chain of CL
Cytochrome c-CL complex [2]
  peroxidase activity in cytochrome c/CL complex: preventing peroxidase activity in cytochrome c/CL complex

## Dmt-D-Arg-Phe-Lys-Ald-NH2 [SS-37]
[3]; CL 5-50 μg/ml
  increase in quantal yield of peptide fluorescence: 3 fold
[3]; with 50 μg/ml CL, excitation 350 nm
  λmax of fluorescence emission: 500 nm
[3]; without CL, excitation 350 nm
  λmax of fluorescence emission: 525 nm
Cytochrome c-CL complex [4]; CL 50 μg/ml, BSA 500 μg/ml, FIG. 23C
  displacement of cytochrome c quenching by bovine serum albumin in the presence of CL: not displaced
Cytochrome c-CL complex [4]; peptide 10 μM, CL 50 μg/ml
  peptide fluorescence on addition of cytochrome c in the presence of CL: similarly quenched
Cytochrome c-CL complex [2]
  peroxidase activity in cytochrome c/CL complex: preventing peroxidase activity in cytochrome c/CL complex

## F[dR]FK-NH2 [SS-20]
Cytochrome c
  kinetics of cyt c reduction induced by glutathione (GSH): can accelerate the kinetics of cyt c reduction
[5]; glutamate/malate, succinate or TMPD/ascorbate, 400 μM ADP, FIG. 26
  O2 consumption in state 3 respiration: increases O2 consumption in state 3 respiration
[5]; peptide 10 μM or 100 μM, complex I, complex II substrate or TMPD/ascorbate, FIG. 26
  electron flux, as measured by O2 consumption: can promote electron flux
[5]; peptide 100 μM, 0.5 mM succinate, 400 μM ADP, FIG. 14
  electron flux, as measured by O2 consumption: can promote electron flux
Isolated mitochondria
  rate of ATP production: significant increase in the rate of ATP production
[1]
  disappearance of the negative Cotton effect caused by CL (heme environment of cytochrome c): Protect the Heme Environment of Cytochrome C from the Acyl Chain of CL
Cytochrome c (with CL)
  CL inhibition of cyt C reduction: prevented CL inhibition of cyt C reduction
Cytochrome c-CL complex [2]
  peroxidase activity in cytochrome c/CL complex: preventing peroxidase activity in cytochrome c/CL complex
